Assay results as given in patent US8293786B2 (Alltranz Inc., priority 2007, dated 2012).

Experiments:
Type in all cases: in vitro ADME
human abdominal skin [1] = assay: In vitro human skin permeation and skin disposition, flow-through diffusion cells (Example 1); conditions: for found in the skin disposition (tissue) samples: Example 1; for 36 h skin conc.: Table 14, in propylene glycol; for permeation through the skin: both the PG donor solution and gel formulation
Procedure: Flow through diffusion cells were used for the permeation studies. HEPES-buffered Hanks' balanced salts containing 40% (polyethylene glycol) PEG 400 with gentamicin was used for the receiver compartment. Donor solution was comprised of either 100% propylene glycol (PG) solution or a rubbed in gel formulation. […] Drug accumulation in the skin after a 24 or 36 h diffusion experiment was determined as μmol/g wet tissue weight.
(§1) The skin samples used in the following experiments were obtained from abdominal reduction surgery and dermatomed to a thickness of approximately 200 μm. The skin samples used herein were frozen at −20° C. for less than six months.
1 L of receiver fluid was prepared by measuring 1 L of nanopure water into a graduated cylinder. 90% of the water was added to an Erlenmeyer flask. Hanks' salts (1 bottle) were added to the water along with 5.96 g of HEPES and 0.35 g of sodium bicarbonate. The pH of the solution was adjusted with 1 N sodium hydroxide solution to pH 7.4. The remaining water was added and the receiver fluid was filtered through a 0.2μ filter (Millipore, Billerica, Mass.). 50 mg of gentamicin was added to the filtered receiver fluid and 400 mL of the receiver fluid was removed and replaced with 400 mL of PEG 400.
Two different formulations were used for charging the donor compartment. Drugs were made up in either 100% PG or a gel formulation. For the PG solution, approximately 50-120 mg of the appropriate drug was weighed into a glass silanized culture tube. The gel formulation resulted from the mixing of absolute ethanol, nanopure water, IPM, Carbopol® 980, 0.1 N aqueous sodium hydroxide solution and the respective drug.
Dermatomed skin harvested from abdominoplasty, stored at −20° C., was used for the experiments. A PermeGear flow-through (In-Line, Riegelsville, Pa.) diffusion cell system was used for the skin permeation studies.
(§2) Diffusion cells were kept at 32° C. with a circulating water bath. Human epidermal skin was arranged in the diffusion cell with stratum corneum (upper layer of skin) facing the donor compartment. Permeation area of the skin was 0.95 cm^2. Data was collected from a human skin donor with three to four diffusion cells per treatment.
Receiver solution was HEPES-buffered Hanks' balanced salts with gentamicin containing 40% PEG 400 at a pH of 7.4 and flow rate was adjusted to 0.8 mL/h. Each cell was charged with 0.050 mL of the respective drug formulation (donor solution) or with 0.035 mL of gel formulation which was rubbed into the skin for 15 sec with a Teflon coated rod. The formulation was applied to ensure complete coverage. Diffusion cells were covered with a cap for the duration of the study.
(§3) Samples were collected into scintillation vials in 3 h increments for either 24 h or 36 h. All the samples were stored at 4° C. until extracted. An aliquot (0.5 mL) of the diffusion sample was placed into a silanized HPLC vial and 0.5 mL of acetonitrile was added to the sample, capped and vortexed.
At the end of the experiment, the skin tissue was removed from the diffusion cell, rinsed with nanopure water, and blotted dry with a paper towel. The skin was tape stripped twice using book tape (Scotch™, 3M, St. Paul, Minn.) to remove drug formulation adhering to the tissue surface. The area of skin in contact with the drug was cut out, chopped up and placed in a pre-weighed scintillation vial. Ten mL of acetonitrile was added to the vial and drug was extracted from the skin by shaking at room temperature overnight. The following day a 0.1 mL aliquot was removed and diluted with an additional 0.9 mL of acetonitrile. The diluted sample was added to the silanized HPLC vial for analysis.
At the end of the experiment, a 0.01 mL aliquot of the PG donor solution was removed and added to a scintillation vial containing 10 mL of acetonitrile. The vials were vortexed and then sonicated for 15 min. An aliquot of 1 mL was removed and transferred into a silanized HPLC vial for analysis.

human abdominal skin [2] = assay: In vitro human skin permeation and skin disposition, flow-through diffusion cells (Examples 2, 2A, 2B); conditions: for 42 h cumulative amt / Flux / Lag time / 42 h skin conc / Flux enhancement: Table 16, 90:8:2 PG:H2O:IPM donor solution, 60/40 Hanks'/PEG 400 receiver fluid; for Flux enhancement: total cannabidiol versus cannabidiol; for detected in the skin as / flux compared to cannabidiol / lag time compared to cannabidiol / permeated through the skin as / total skin concentrations compared to cannabidiol: in donor solution
Procedure: Flow through diffusion cells were used for the permeation studies. HEPES-buffered Hanks' balanced salts containing 40% PEG 400 with gentamicin or 40% aqueous PEG 400 with gentamicin were used for the receiver compartment. Donor solution was comprised of 90:8:2 PG:H2O:IPM solution or gel formulation. […] Drug accumulation in the skin after a 24, 30 or 42 h diffusion experiment was determined as μmol/g wet tissue weight.
as §1
One (1) L of receiver fluid was prepared by measuring 1 L of nanopure water into a graduated cylinder. 90% of the water was added to an Erlenmeyer flask. Hanks' salts (1 bottle) were added to the water along with 5.96 g of HEPES and 0.35 g of sodium bicarbonate. The pH of the solution was adjusted with 1 N sodium hydroxide solution to pH 7.4. The remaining water was added and the receiver fluid was filtered through a 0.2μ filter (Millipore, Billerica, Mass.). Fifty (50) mg of gentamicin was added to the filtered receiver fluid and 400 mL of the receiver fluid was removed and replaced with 400 mL of PEG 400.
The receiver fluid was prepared by measuring 600 mL of nanopure H2O into a graduated cylinder. The H2O was filtered through a 0.2μ filter (Millipore, Billerica, Mass.). Fifty (50) mg of gentamicin was added to the filtered H2O and 400 mL of PEG 400 was added.
The prodrugs were made up in a solution of 45:4:1 PG:H2O:IPM. For this solution, the appropriate amount of drug was weighed into a glass silanized culture tube and IPM was added, the 50 μL of PG to coat the drug, then an additional 247 μL PG was added and the donor solution was vortexed again. Finally 26 μL of water was added. The gel formulation resulted from the mixing of absolute ethanol, nanopure water, IPM, Carbopol® 980, 0.1 N sodium hydroxide solution and the respective drug.
The gel formulation was comprised of absolute ethanol, nanopure water, IPM, Carbopol® 980, 0.1 sodium hydroxide solution and respective drug. The anhydrous gel was comprised of absolute ethanol, PEG monoethyl ether 550, Klucel® hydroxypropylcellulose, and respective drug.
Dermatomed skin harvested from abdominoplasty, stored at −20° C., was used for the experiments. A PermeGear flow-through (In-Line, Hellertown, Pa.) diffusion cell system was used for the skin permeation studies.
as §2, with “The permeation” for “Permeation”, “The data” for “Data”, “three” for “three to four”
The receiver solution was HEPES-buffered Hanks' balanced salts with gentamicin containing 40% PEG 400 at a pH of 7.4 or 40% aqueous PEG 400 and flow rate was adjusted to 0.8 mL/h. Each cell was charged with 0.10 mL of the respective drug formulation (donor solution) or 50 μL of gel formulation which was rubbed into the skin for 15 sec with a Teflon coated rod. The formulation was applied to ensure complete coverage. […]. Diffusion cells were covered with a stopper or cap for the duration of the study.
as §3, with “24, 30,” for “24 h”, “42” for “36”
At the end of the experiment, the skin tissue was removed from the diffusion cell, rinsed with nanopure water, and blotted dry with a paper towel. The skin was tape stripped twice using book tape (Scotch™, 3M, St. Paul, Minn.) to remove drug formulation adhering to the tissue surface.

[3] = Plasma stability of cannabidiol prodrugs (bioconversion to parent drug); conditions: Table 20; for % Prodrug at time (h): mono-prodrug in plasma; for % mono-prodrug at time (h) / % Di-prodrug at time (h): di-prodrug in plasma; for % mono-prodrug at time (h): mono-prodrug formed
Procedure: An approximated 1 mg/mL stock solution of each prodrug was prepared in 100 μL of ethanol and 900 μL of acetonitrile. Ten (10) μL of stock was spiked into 1 mL of plasma and vortexed. The samples were kept sealed in an amber vial and samples were obtained to analyze for bioconversion to parent drug.

[4] = as applied compound (CBD or intact prodrug)
[5] = prodrug applied, as total cannabidiol equivalents
[6] = mono-prodrug (ALL00131) from applied di-prodrug

Compound	found in the skin disposition (tissue) samples (human abdominal skin [1])	permeation through the skin (human abdominal skin [1])	42 h cumulative amt (human abdominal skin [2]; CBD from applied prodrug)	Flux (human abdominal skin [2]; CBD from applied prodrug)	Lag time (human abdominal skin [2]; CBD from applied prodrug)	42 h cumulative amt (human abdominal skin [2]; [4])	42 h skin conc (human abdominal skin [2]; [4])	Flux (human abdominal skin [2]; [4])	Lag time (human abdominal skin [2]; [4])	42 h cumulative amt (human abdominal skin [2]; [5])	42 h skin conc (human abdominal skin [2]; [5])	Flux (human abdominal skin [2]; [5])	Lag time (human abdominal skin [2]; [5])	Flux enhancement (human abdominal skin [2])	detected in the skin as (human abdominal skin [2])	flux compared to cannabidiol (human abdominal skin [2])	lag time compared to cannabidiol (human abdominal skin [2])	permeated through the skin as (human abdominal skin [2])	total skin concentrations compared to cannabidiol (human abdominal skin [2])	% mono-prodrug at time (h) ([3]; 2 h)	further results
C=C(C)C1CCC(C)=CC1c1c(OC(=O)CCOCC)cc(CCCCC)cc1OC(=O)CCOCC (stereo not drawn) [ALL00103]	Some intact prodrug was found in the skin samples but very little cannabidiol was detected	did not permeate (or were below LOD)	–	–	–	–	–	–	–	–	–	–	–	–	–	–	–	–	–	–	36 h skin conc. (human abdominal skin [1]; [4]): 9.7 ± 1.0 µmol/g; 36 h skin conc. (human abdominal skin [1]; prodrug applied, as total CBD equivalents): 9.7 ± 1.0 µmol/g
C=C(C)C1CCC(C)=CC1c1c(OC(=O)NCC)cc(CCCCC)cc1OC(=O)NCC (stereo not drawn) [ALL00104]	Some intact prodrug was found in the skin samples but very little cannabidiol was detected	did not permeate (or were below LOD)	–	–	–	–	–	–	–	–	–	–	–	–	–	–	–	–	–	–	–
C=C(C)[C@@H]1CCC(C)=C[C@H]1c1c(O)cc(CCCCC)cc1OC(=O)COCCOCCOCCOC [ALL00131, CBD 3,6,9,12-tetraoxatridecanoate]	–	–	15.4 ± 2.0 nmol	0.6 ± 0.1 nmol/cm^2/h	9.6 ± 3.0 h	54.9 ± 22.1 nmol	12.5 ± 5.5 µmol/g	2.3 ± 0.8 nmol/cm^2/h	13.7 ± 1.9 h	70.3 ± 20.4 nmol	12.5 ± 5.5 µmol/g	2.8 ± 0.7 nmol/cm^2/h	12.9 ± 1.6 h	0.43	only as prodrug	did not increase the flux	similar	intact prodrug and cannabidiol	not higher	–	% Prodrug at time (h) ([3]; 0 h): 100%; % Prodrug at time (h) ([3]; 1 h): 64%; % Prodrug at time (h) ([3]; 2 h): 42%; % Prodrug at time (h) ([3]; 4 h): 24%; % Prodrug at time (h) ([3]; 6 h): 14%; % Prodrug at time (h) ([3]; 24 h): 14%
C=C(C)[C@@H]1CCC(C)=C[C@H]1c1c(OC(=O)COCCOCCOCCOC)cc(CCCCC)cc1OC(=O)COCCOCCOCCOC [ALL00132, CBD di(3,6,9,12-tetraoxatridecanoate)]	–	–	10.0 ± 0.4 nmol	0.4 ± 0.1 nmol/cm^2/h	11.8 ± 4.2 h	26.4 ± 17.0 nmol	2.9 ± 1.3 µmol/g	1.4 ± 0.4 nmol/cm^2/h	19.2 ± 4.9 h	59.5 ± 23.8 nmol	3.5 ± 1.7 µmol/g	2.6 ± 0.5 nmol/cm^2/h	14.9 ± 3.8 h	0.40	prodrug and small amounts as mono-substituted prodrug, ALL00131	did not increase the flux	wasn't decreased	intact prodrug, mono-substituted prodrug (ALL00131), and cannabidiol	not higher	44%	42 h cumulative amt (human abdominal skin [2]; [6]): 23.0 ± 7.1 nmol; 42 h skin conc (human abdominal skin [2]; [6]): 0.6 ± 0.1 µmol/g; Flux (human abdominal skin [2]; [6]): 0.8 ± 0.2 nmol/cm^2/h; Lag time (human abdominal skin [2]; [6]): 9.1 ± 3.3 h; % mono-prodrug at time (h) ([3]; 1 h): 52%; % mono-prodrug at time (h) ([3]; 4 h): 24%; % mono-prodrug at time (h) ([3]; 6 h): 15%; % mono-prodrug at time (h) ([3]; 24 h): 2%; % Di-prodrug at time (h) ([3]; 0 h): 100%; % Di-prodrug at time (h) ([3]; 1 h): 28%; % Di-prodrug at time (h) ([3]; 2 h): 15%; % Di-prodrug at time (h) ([3]; 4 h): 0%; % Di-prodrug at time (h) ([3]; 6 h): 0%; % Di-prodrug at time (h) ([3]; 24 h): 0%
C=C(C)C1CCC(C)=CC1c1c(OC(=O)COCCOCCOC)cc(CCCCC)cc1OC(=O)COCCOCCOC (stereo not drawn) [ALL00141, CBD bis(2-[2-(2-methoxyethoxy)ethoxy]acetate)]	–	–	–	–	–	–	–	–	–	–	–	–	–	–	–	–	–	–	–	1%	% mono-prodrug at time (h) ([3]; 20 h): 2%; % Di-prodrug at time (h) ([3]; 0 h): 98%; % Di-prodrug at time (h) ([3]; 2 h): 71%; % Di-prodrug at time (h) ([3]; 20 h): 46%
